{"source": "patent US20140163073A1", "about": "“Small Molecule Inhibitors of P-type ATPases” (priority 2012, published 2014)", "key": {"[1]": {"molecular_target": "T1, ATP7A (Mus musculus, UniProt Q64430)", "T1 construct": "endogenous in cells; host or cells: B16F10 mouse melanoma cells", "T1 sequence (Q64430 1-1491)": "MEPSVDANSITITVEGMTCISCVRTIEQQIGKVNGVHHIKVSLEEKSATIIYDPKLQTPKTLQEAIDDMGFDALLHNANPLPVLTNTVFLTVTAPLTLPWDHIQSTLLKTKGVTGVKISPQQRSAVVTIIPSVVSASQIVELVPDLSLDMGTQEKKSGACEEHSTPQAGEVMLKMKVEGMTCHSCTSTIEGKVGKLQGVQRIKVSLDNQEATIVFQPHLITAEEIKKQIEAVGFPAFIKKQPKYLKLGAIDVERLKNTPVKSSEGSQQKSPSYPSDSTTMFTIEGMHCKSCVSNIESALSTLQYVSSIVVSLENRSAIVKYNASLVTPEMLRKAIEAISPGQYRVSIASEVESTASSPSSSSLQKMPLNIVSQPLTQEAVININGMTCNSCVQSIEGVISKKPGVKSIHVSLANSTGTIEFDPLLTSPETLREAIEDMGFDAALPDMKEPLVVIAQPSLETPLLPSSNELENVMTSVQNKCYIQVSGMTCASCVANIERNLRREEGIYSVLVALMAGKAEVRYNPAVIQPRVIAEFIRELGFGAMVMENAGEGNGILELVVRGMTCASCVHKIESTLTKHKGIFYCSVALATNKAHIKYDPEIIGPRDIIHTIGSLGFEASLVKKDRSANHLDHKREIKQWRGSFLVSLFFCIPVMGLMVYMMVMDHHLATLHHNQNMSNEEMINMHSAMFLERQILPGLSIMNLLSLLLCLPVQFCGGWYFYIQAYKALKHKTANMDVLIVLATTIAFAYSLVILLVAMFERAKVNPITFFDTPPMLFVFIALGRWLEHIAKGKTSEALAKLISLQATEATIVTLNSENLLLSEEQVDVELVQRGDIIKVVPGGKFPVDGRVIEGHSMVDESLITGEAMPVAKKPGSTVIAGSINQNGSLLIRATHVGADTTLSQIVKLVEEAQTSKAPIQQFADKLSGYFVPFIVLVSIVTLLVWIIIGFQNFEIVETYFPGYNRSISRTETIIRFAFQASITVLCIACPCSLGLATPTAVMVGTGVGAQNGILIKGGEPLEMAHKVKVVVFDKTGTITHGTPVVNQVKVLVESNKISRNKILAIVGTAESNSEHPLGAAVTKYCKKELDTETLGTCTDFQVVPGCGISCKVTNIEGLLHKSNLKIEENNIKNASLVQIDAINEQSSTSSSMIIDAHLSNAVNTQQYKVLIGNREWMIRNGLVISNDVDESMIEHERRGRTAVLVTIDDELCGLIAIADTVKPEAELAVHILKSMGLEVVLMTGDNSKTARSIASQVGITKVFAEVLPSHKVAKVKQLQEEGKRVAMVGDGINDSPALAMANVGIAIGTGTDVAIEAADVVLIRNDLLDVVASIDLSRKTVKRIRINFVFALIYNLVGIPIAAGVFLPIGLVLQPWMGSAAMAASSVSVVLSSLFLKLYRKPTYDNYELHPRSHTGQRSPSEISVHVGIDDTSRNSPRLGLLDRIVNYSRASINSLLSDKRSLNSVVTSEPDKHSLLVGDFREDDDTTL", "test": "Cu+2-stimulated ATP7A trafficking, co-localization assay", "format": "cell-based", "details": "B16F10 cells", "protocol": "Cells were incubated for 16 hours with […] omeprazole or the vehicle (DMSO) and then treated with Cu+2, or not treated, to determine if omeprazole could inhibit Cu+2-stimulated (CuCl2) ATP7A trafficking. […] ATP7A is seen as green following immunofluorescence protocols previously described (Petris et al., 1999), the Golgi stained red, and the nucleus stained blue. […]\nThis is consistent with the idea that omeprazole is metabolized to generate an inhibitory metabolite (such as hydroxy-omeprazole or perhaps the sulfonated metabolite) which then interacts with newly synthesized tyrosinase. This finding also is consistent with the hypothesis that omeprazole inhibits metallation of newly synthesized tyrosinase via ATP7A, rather than functioning as a direct inhibitor of tyrosinase per se; that is, a 72 hour incubation in omeprazole appears to be required so that preexisting tyrosinase can be turned over, allowing the inhibitory effect of omeprazole to be detected on newly synthesized tyrosinase."}, "[2]": {"tested_on": "melanocytes", "test": "Inhibition of melanogenesis / pigment development in cultured melanocytes", "format": "cell-based"}, "[3]": {"tested_on": "reconstructed human skin model", "test": "Reconstructed human skin model", "format": "cell-based", "text": "(§1) PPIs had been known to function in the parietal cells to block the production of stomach acid by binding to at least one cysteine residue of the gastric proton pump, ATP4A, to thus effect long-lasting, semi-irreversible inactivation of the ATP4A. In order to bind to the ATPase, the PPI must be in its active form, and the PPI requires an acidic environment to undergo rearrangement to its active form."}, "[4]": {"details": "pH below 0.8; cited from earlier work"}, "[5]": {"tested_on": "normal human epidermal melanocytes", "test": "Melanogenesis and melanin content in normal human epidermal melanocytes", "format": "cell-based", "text": "as §1"}, "[6]": {"tested_on": "tyrosinase, MITF, TRP-2, Pme117 mRNA", "test": "mRNA levels of melanogenesis related proteins by RT-PCR in B16F10 mouse melanoma cells", "format": "cell-based", "text": "The inventors next examined the effect of omeprazole on tyrosinase, the principal, rate-limiting enzyme in melanin synthesis."}}, "note": "Entries after “also recorded” stand apart in the source; their conditions may differ. Like-named read-outs stand apart in the source and are kept apart here."}
{"smiles": "Cc1nc2c(OCc3ccccc3)cccn2c1CC#N", "note": "[SCH-28080]", "values": [{"measurement": "inhibition of Cu+2-stimulated ATP7A re-localization", "setting": "[1]; 100 μM for 16 hours, then 10 μM Cu+2 for 3 hours", "value": "inhibition; also recorded: very potent inhibitor"}, {"measurement": "ATP7A trafficking without Cu+2 stimulation", "setting": "[1]; SCH-28080, absence of Cu+2", "value": "no effect on ATP7A trafficking"}, {"measurement": "inhibition of melanogenesis", "setting": "[2]", "value": "also inhibited melanogenesis"}, {"measurement": "inhibition of melanogenesis", "setting": "[2]; listed as SCH-20808", "value": "strongly inhibited melanogenesis"}]}
{"smiles": "COc1ccc2[nH]c([S+]([O-])Cc3ncc(C)c(OC)c3C)nc2c1", "note": "(centres unmarked) [omeprazole, 5- or 6-methoxy-2-{[(4-methoxy-3,5-dimethylpyridin-2-yl)methyl]sulfinyl}-1H-benzimidazole]", "values": [{"measurement": "concentration at which effective", "setting": "[3]", "value": 50, "unit": "µg/mL"}, {"measurement": "reorganization (stability)", "setting": "[4]", "value": "quickly reorganizes into the sulfonamide analog"}, {"measurement": "cytotoxicity", "setting": "[5]", "value": "low cytotoxicity"}, {"measurement": "EC50", "setting": "[5]; Melanocyte, read-out: EC50 of melanogenesis inhibition", "value": 15, "unit": "µg/mL"}, {"measurement": "concentration that inhibits melanogenesis", "setting": "[2]; cultured melanocytes", "value": "5 to 50", "unit": "µg/mL"}, {"measurement": "tyrosinase mRNA levels", "setting": "[6]", "value": "no effect"}]}
{"smiles": "C[C@@H]1O[C@@H](O[C@H]2C[C@@H](O)[C@]3(CO)[C@H]4[C@H](O)C[C@]5(C)[C@@H](C6=CC(=O)OC6)CC[C@]5(O)[C@@H]4CC[C@]3(O)C2)[C@H](O)[C@H](O)[C@H]1O", "note": "[ouabain]", "values": [{"measurement": "inhibition of melanogenesis", "setting": "[2]", "value": "does not inhibit melanogenesis"}]}
